Experimental data taken from article PMC6504641 (Chembiochem : a European journal of chemical biology, 2018).

Molecular target: BRAF (Homo sapiens, UniProt P15056)
Test: ELISA kinase assay, phospho-MEK1 readout
Assay type: biochemical

Chain of BRAF (P15056 whole entry): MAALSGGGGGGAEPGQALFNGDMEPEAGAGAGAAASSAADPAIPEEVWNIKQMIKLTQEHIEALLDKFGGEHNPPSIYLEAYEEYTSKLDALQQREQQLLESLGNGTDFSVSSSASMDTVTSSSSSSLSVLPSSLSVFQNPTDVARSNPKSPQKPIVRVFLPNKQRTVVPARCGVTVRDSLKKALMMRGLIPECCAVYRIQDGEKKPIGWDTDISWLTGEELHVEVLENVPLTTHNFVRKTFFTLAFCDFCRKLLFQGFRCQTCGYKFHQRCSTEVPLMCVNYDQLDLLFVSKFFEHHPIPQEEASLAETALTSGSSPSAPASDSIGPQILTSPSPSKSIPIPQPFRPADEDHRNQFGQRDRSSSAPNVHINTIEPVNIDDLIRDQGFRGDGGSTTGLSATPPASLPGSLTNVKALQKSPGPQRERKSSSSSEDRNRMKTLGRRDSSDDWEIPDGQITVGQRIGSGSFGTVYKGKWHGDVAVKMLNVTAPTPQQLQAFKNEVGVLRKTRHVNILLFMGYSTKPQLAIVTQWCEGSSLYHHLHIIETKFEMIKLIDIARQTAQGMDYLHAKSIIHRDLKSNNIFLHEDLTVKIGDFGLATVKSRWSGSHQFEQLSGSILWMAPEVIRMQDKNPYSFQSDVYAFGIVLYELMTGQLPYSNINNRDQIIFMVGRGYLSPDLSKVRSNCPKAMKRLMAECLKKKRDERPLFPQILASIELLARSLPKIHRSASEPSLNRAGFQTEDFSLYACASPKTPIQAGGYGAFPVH

- IC50: 0.7 nM
Compound: N#Cc1c(Oc2ccc(F)c(NC(=O)Cc3cccc(C(F)(F)F)c3)c2)ccc2nc(NC(=O)C3CC3)sc12 [TAK-632]
